Experimental data reported in patent US7642249B2, “Dihydrogen phosphate salt of a prostaglandin D2 receptor antagonist” (Aventis Pharmaceuticals Inc., priority 2005, dated 2010).
In brackets after ≈: the same amount, converted by molar mass. Structures can show the parent of a compound that is named as a salt.

Columns and labels:
Format in all cases: physicochemical
[1] = Solubility in phosphate buffer (PBS pH 7.4)
Description: (§1) The dihydrogen phosphate salt has increased aqueous solubility over the free form and the hydrochloride salt. The following chart lists the solubilities of the free form, the hydrochloride salt and the dihydrogen phosphate salt at 25° C. in phosphate buffer (PBS pH 7.4, a mixture of 19% of a 0.1M monobasic sodium phosphate solution and 81% of a 0.1M dibasic sodium phosphate solution) and the solubilities of the free form and the dihydrogen phosphate salt 37° C. in a simulated intestinal fluid under fasted conditions (“FaSSIF”, prepared according to Dressman J. B., Amidon G. L., Reppas C. and Shah V. P., Dissolution testing as a prognostic tool for oral drug absorption: immediate release dosage forms, Pharmaceutical Research: 1998, Vol. 15, No. 1, 11-22).

[2] = Solubility in simulated intestinal fluid under fasted conditions (FaSSIF)
Description: as §1

[3] = Dynamic water vapor sorption (DVS) hygroscopicity; settings: at 94% relative humidity (RH)
Description: Dynamic Water Vapor Sorption (DVS)
The water sorption profile is determined using a SMS Instruments Dynamic Vapor Sorption Analyzer Model DVS-1 or VTI Instruments Model SGA-100 Dynamic Vapor Sorption Analyzer. RH and weight are calibrated using standards. The dihydrogen phosphate salt is loaded and dried at ≦1% RH for 2.5 hours prior to starting the experiment. The RH is stepped from about 0 to 95% RH. The specimen weight is considered constant at each step when percent mass change is less than 0.005% over a 5-minute interval with a minimum absolute equilibration time of 15 minutes.

Compound | Solubility (PBS pH 7.4, 25° C., μg/mL) [1] [μg/mL] | Solubility in FaSSIF (37° C., ug/mL) [2] [µg/mL] | weight gain during the sorption (DVS) [3] [%]
COc1nc(NCCc2ccc(Cl)cc2Cl)cc(-c2cccc(C(C)(C)C(=O)O)c2)n1 [Dihydrogen phosphate salt, Dihydrogen phosphate salt of 2-(3-{6-[2-(2,4-Dichloro-phenyl)-ethylamino]-2-methoxy-pyrimidin-4-yl}-phenyl)-2-methyl-propionic acid] | 15 | 266 | ~0.9
COc1nc(NCCc2ccc(Cl)cc2Cl)cc(-c2cccc(C(C)(C)C(=O)O)c2)n1 [Free form, 2-(3-{6-[2-(2,4-dichloro-phenyl)-ethylamino]-2-methoxy-pyrimidin-4-yl}-phenyl)-2-methyl-propionic acid] | <1 | 14 (≈ 30.4 µM) | –
COc1nc(NCCc2ccc(Cl)cc2Cl)cc(-c2cccc(C(C)(C)C(=O)O)c2)n1 [Hydrochloride salt, 2-(3-{6-[2-(2,4-dichloro-phenyl)-ethylamino]-2-methoxy-pyrimidin-4-yl}-phenyl)-2-methyl-propionic acid] | 5 | – | –
